Patent US20130317034A1, “COMBINATION THERAPY FOR TREATING DIABETES” (Japan Tobacco Inc., priority 2010, published 2013)

What was measured:
[1] = Food consumption, body weight gain and body weight in rats fed a high fat diet; assay type: in vivo; conditions: Mean ± S.E. (n = 8)
Experimental: Forty-four eight week old male rats (Charles River Laboratories Japan, Inc.) were used for the experiment. Body weights and food weight were measured six days before and on the day before the dosing of the compound of formula (I). Body weight gain and food consumption were calculated for this period. Animals were fasted for 24 hours the day before dosing with the compound of formula (I). Using the body weights on the day of the dosing, body weight gain and food consumption as indicators, 32 rats were selected from those closest to the mean values. The rats were assigned to four groups (control, compound of formula (I) only, DPP-IV inhibitor only, and combination of compound of formula (I) and DPP-IV inhibitor) with eight animals in each group. One-way analysis of variance was performed using SAS Preclinical Package Version 5.0 and SAS System Version 8.2 (SAS Institute Japan Co., Ltd.) to verify that no significant intergroup differences were present after group allocation.
(§1) After the rats were fasted for 24 hours, either the compound of formula (I) (30 mg/kg) or vehicle (0.5% MC) was dosed orally. The rats were immediately fed with a high-fat diet for six hours and fasted overnight. Glucose tolerance tests (GTTs) were performed 30 minutes after dosing either sitagliptin or vehicle (0.5% MC). Dosing for each group is described in Tables 1 and 2 below.
Food consumption was calculated according to the following formula: food consumption (g)=food weight before feeding (g)−food weight after feeding (g). Body weight gain was calculated according the following formula: body weight gain (g)=body weight after feeding (g)-body weight before feeding (g). There were no significant differences between the groups in food consumption and body weight gain for six hours after dosing, and in body weight at the start of GTT (Table 3).

rats fed a high fat diet [2] = experiment: Glucose tolerance test (GTT): plasma insulin levels; assay type: in vivo
Experimental: (§2) This example studied the combined effects of the compound of formula (I) and sitagliptin, i.e., a DPP-IV inhibitor, on plasma GLP-1 levels and glucose tolerance as evaluated in rats fed a high fat diet.
as §1
(§3) At the start of the GTT, blood was collected to measure plasma GLP-1. The plasma glucose and insulin concentrations were measured before and after loading with the glucose solution. For the preparation of the glucose solution, glucose was diluted in saline at a concentration of 0.4 g/mL.
(§4) For the GTT, the rats were fasted overnight after six hours feeding. On the following day, 600-700 μL of blood were collected from the tail vein into tubes containing a DPP-IV inhibitor, aprotinin, and EDTA. Thereafter, a glucose solution at a dose of 1 g/2.5 mL/kg was loaded intraperitoneally. At 10, 30, 60, and 120 minutes after loading the glucose solution, 200-300 μL of blood were collected from the tail vein into tubes containing heparin. The blood was centrifuged at 10,000×g and 4° C. for five minutes to obtain the plasma.

rats fed a high fat diet [3] = experiment: Glucose tolerance test (GTT): plasma glucose levels; assay type: in vivo
Experimental: as §2, §1, §3, §4

plasma GLP-1 = experiment: Plasma GLP-1 level at the start of the GTT (GLP-1 (Active) ELISA); assay type: in vivo, rats
Experimental: as §2, §1, §3
For the GTT, the rats were fasted overnight after six hours feeding. On the following day, 600-700 μL of blood were collected from the tail vein into tubes containing a DPP-IV inhibitor, aprotinin, and EDTA. Thereafter, a glucose solution at a dose of 1 g/2.5 mL/kg was loaded intraperitoneally. […]
After 200 μL of plasma sampled before the glucose loading were added with […] of ethanol, the solution was thoroughly mixed. […] The GLP-1 concentration was measured by the ELISA method using a GLP-1 (Active) ELISA kit.

[4] = six hours high-fat feeding after dosing, compound of formula (I) 30 mg/kg PO
[5] = 0 min after glucose loading (1 g/kg ip), compound of formula (I) 30 mg/kg PO, sitagliptin 10 mg/kg PO

## N[C@@H](CC(=O)N1CCn2c(nnc2C(F)(F)F)C1)Cc1cc(F)c(F)cc1F [sitagliptin]
[1]; before GTT
  Body Weight: 352.7 ± 6.9 g
[1]; [4]
  Body Weight Gain: 15.5 ± 1.2 g
  Food Consumption: 15.2 ± 1.3 g
Rats fed a high fat diet [2]; [5]
  Plasma Insulin Level: 2.350 ± 0.439 ng/mL
Rats fed a high fat diet [2]; 10 min after glucose loading
  Plasma Insulin Level: 4.968 ± 0.562 ng/mL
Rats fed a high fat diet [2]; 30 min after glucose loading
  Plasma Insulin Level: 4.595 ± 0.675 ng/mL
Rats fed a high fat diet [2]; 60 min after glucose loading
  Plasma Insulin Level: 3.253 ± 0.749 ng/mL
Rats fed a high fat diet [2]; 120 min after glucose loading
  Plasma Insulin Level: 3.046 ± 0.435 ng/mL
Rats fed a high fat diet [2]; during the GTT, 0-120 min
  AUC of Plasma Insulin Level: 438.898 ± 72.779 ng·min/mL
Rats fed a high fat diet [2]; versus control group
  Plasma insulin levels during the GTT, in words: higher
Rats fed a high fat diet [3]; [5]
  Plasma Glucose Level: 149 ± 6 mg/dL
Rats fed a high fat diet [3]; 10 min after glucose loading
  Plasma Glucose Level: 264 ± 16 mg/dL
Rats fed a high fat diet [3]; 30 min after glucose loading
  Plasma Glucose Level: 255 ± 12 mg/dL
Rats fed a high fat diet [3]; 60 min after glucose loading
  Plasma Glucose Level: 185 ± 8 mg/dL
Rats fed a high fat diet [3]; 120 min after glucose loading
  Plasma Glucose Level: 157 ± 5 mg/dL
Rats fed a high fat diet [3]; at 60 minutes after glucose loading, versus control group
  Plasma glucose levels in the GTT, in words: significantly decreased
Rats fed a high fat diet [3]; during the GTT, 0-120 min
  AUC of Plasma Glucose Level: 24095 ± 981 mg·min/dL
Rats fed a high fat diet [3]; versus control group
  AUC for the glucose levels during the GTT, in words: lower than that for the control group, although there were no statistically significant differences
Plasma GLP-1; at the start of the GTT, compound of formula (I) 30 mg/kg PO day before, sitagliptin 10 mg/kg PO 30 min before GTT, Mean ± S.E. (n = 8)
  Plasma GLP-1 Level: 1.800 ± 0.270 pmol/L
Plasma GLP-1; versus control group
  Plasma GLP-1 levels prior to glucose loading, in words: significantly higher
